{"source": "patent US11607557B2", "about": "“Devices and systems for treating pain based on light therapy” (Arizona Board of Regents on Behalf of the University of …, priority 2016, dated 2023)", "key": {"[1]": {"tested_on": "green LED-induced antinociception", "assay": "Paw withdrawal latency (Hargreaves) after antagonists in green LED exposed naïve rats", "assay_type": "in vivo, rat", "text": "Pathogen-free, adult male and female Sprague-Dawley as well as male Long Evans rats (weight at testing 250-350 g; Harlan-Sprague-Dawley, Indianapolis, Ind.) were housed in a climate-controlled room on a 12-h light/dark cycle and were allowed to have food and water ad libitum. All procedures were approved by the University of Arizona Animal Care and Use Committee and conform to the guidelines for the use of laboratory animals of the National Institutes of Health (publication no, 80-23, 1966). All behavioral experiments were conducted by experimenters blinded to the treatment conditions.\nAll visible spectrum LED flex strips were purchased from ledsupply.com (VT, USA). The specification of the LED were: (i) #LS-AC60-6-BL, 472 nanometer wavelength (i.e., blue), 8 watts, 120 Volts, 120 degree beam angle; (ii) #LS-AC60-6-GR, 525 nanometer wavelength (i.e., green), 8 watts, 120 Volts, 120 degree beam angle; and (iii) #LS-AC60-66-WH, white, 9.6 watts, 120 Volts, 120 degree beam angle. LED strips were affixed to the outside of clear plastic cages that housed the rats so as to avoid the strips from being chewed. Rats were exposed to the various LED in these cages with full access to food and water in a dark room devoid of any other source of light. Following behavioral assessment, the rats were returned to their cages for additional LED exposure. At the end of daily testing, the rats were returned to their regular animal room where they were exposed to regular room light (regular florescent bulbs). A lux meter (Tondaj LX1010B, Amazon.com) was used to determine the illuminance and luminous emittance of the LED strips.\n(§1) The method of Hargreaves et al. was used. Rats were acclimated within Plexiglas enclosures on a clear glass plate maintained at 30° C. A radiant heat source (high-intensity projector lamp) was focused onto the plantar surface of the hind paw. When the paw was withdrawn, a motion detector halted the stimulus and a timer. A maximal cutoff of 33.5 sec was used to prevent tissue damage.\nFor intrathecal drug administration, rats were chronically implanted with catheters as described by Yaksh and Rudy. Rats were anesthetized with isoflurane and placed in a stereotactic device. The occipital muscles were separated from their occipital insertion and retracted caudally to expose the cisternal membrane at the base of the skull. Polyethylene tubing was passed caudally from the cisterna magna to the level of the lumbar enlargement. Animals were allowed to recover and were examined for evidence of neurologic injury. Animals with evidence of neuromuscular deficits were excluded.\nThe antinociceptive effects of green LED indicates a possible involvement of endogenous mediators linked to pain, such as opioids and cannabinoids. To test this hypothesis naïve rats exposed to green LED for eight hours daily for five days were administered antagonists and then PWLs were measured 20-30 minutes later.\nThus, to elucidate the role of die adrenergic system, several adrenergic receptors antagonists were tested. […] Additionally, rats exposed to green LED maintained regular grooming behaviors, which is in contrast to diminished grooming observed in stressed rats."}, "[2]": {"conditions": "calcium indicator, λex 340, 380 nm; cited from earlier work"}, "[3]": {"tested_on": "rostral ventromedial medulla (RVM)", "assay": "Lidocaine microinjection into the RVM, paw withdrawal latency in green LED exposed rats", "assay_type": "in vivo, rat", "conditions": "2% lidocaine microinjected into the RVM of naïve rats exposed to green LED", "experimental": "as §1\nRats received a bilateral guide cannula (26 GA, #C235-1.2 mm, Plastics One Inc.) directed to the RVM. The cannula was placed at: −11.0 from bregma, −7.5 mm from the dura and 0.6 mm on either side of the midline. Injections were made by expelling 0.5 μl through an injection cannula protruding 1 mm beyond the tip of the guide. Cannula placement was confirmed with 0.5 μl Evans Blue injected into both sides of the cannula and microscopic examination of medullary sections. Acute single injections into the RVM were performed by inserting an injector (Plastics One Inc) attached to a 2 μl Hamilton syringe and expelling 0.5 μl at the same coordinates.\nNeurons within the rostral ventromedial medulla (RVM) have been reported to project to the spinal or medullary dorsal horns to directly or indirectly enhance or diminish nociceptive traffic. As this descending modulatory circuit is “opioid-sensitive”, next the contribution of the RVM in the green LED-induced antinociceptive response was examined."}, "[4]": {"tested_on": "rats", "assay": "HIV sensory neuropathy model, thermal hyperalgesia (Hargreaves test)", "assay_type": "in vivo, rat", "conditions": "intrathecal gp120, 300 ng", "experimental": "as §1\n(§2) Thermal hyperalgesia and mechanical allodynia are produced by intrathecal administration of the human immunodeficiency virus-1 (HIV-1) envelope glycoprotein, gp120 [60]. Seven days after implantation of an intrathecal catheter, baseline behavioral measurements were obtained and then rats were randomly assigned to two groups. On days 10 and 13, one group of rats were injected i.t. with 300 ng gp120 in a final volume of 20 µl in 0.9% saline while the other group were injected in a similar fashion with 0.9% saline."}, "[5]": {"tested_on": "rats", "assay": "HIV sensory neuropathy model, mechanical allodynia (von Frey test)", "assay_type": "in vivo, rat", "conditions": "intrathecal gp120, 300 ng, compared to pre-gp120 baseline", "experimental": "The assessment of tactile allodynia (i.e., a decreased threshold to paw withdrawal after probing with normally innocuous mechanical stimuli) consisted of testing the withdrawal threshold of the paw in response to probing with a series of calibrated fine (von Frey) filaments. Each filament was applied perpendicularly to the plantar surface of the paw of rats held in suspended wire mesh cages. Withdrawal threshold was determined by sequentially increasing and decreasing the stimulus strength (the “up and down” method), and data were analyzed with the nonparametric method of Dixon, as described by Chaplan et al and expressed as the mean withdrawal threshold.\nas §2"}, "[6]": {"conditions": "cannabinoid receptor antagonists, systemic (i.p.) 1 mg/kg, green LED eight hours daily for five days, 1 mg/kg"}, "[7]": {"conditions": "intrathecal (i.t.), 20 μg, green LED eight hours daily for five days, PWL 20-30 minutes after antagonist"}, "[8]": {"conditions": "alpha- and beta-adrenergic receptor antagonists, i.p. (doses in Table 1), green LED exposed rats"}}, "note": "Entries after “also recorded” stand apart in the source; their conditions may differ.", "data": [{"molecule": "Cc1c(C(=O)NN2CCCCC2)nn(-c2ccc(Cl)cc2Cl)c1-c1ccc(I)cc1", "note": "[AM251]", "values": [{"measurement": "effect on green LED-induced antinociception (paw withdrawal latency)", "setting": "[1]; [6]", "value": "reversed the green LED-induced antinociception; also recorded: reversed green LED-induced thermal analgesia"}]}, {"molecule": "COc1ccc(C(=O)c2c(C)n(CCN3CCOCC3)c3cc(I)ccc23)cc1", "note": "[AM630]", "values": [{"measurement": "effect on green LED-induced antinociception (paw withdrawal latency)", "setting": "[1]; [6]", "value": "unaffected"}]}, {"molecule": "CC(=O)OCOC(=O)CN(CC(=O)OCOC(C)=O)c1ccc(C)cc1OCCOc1cc2cc(-c3ncc(C(=O)OCOC(C)=O)o3)oc2cc1N(CC(=O)OCOC(C)=O)CC(=O)OCOC(C)=O", "note": "[Fura-2AM]", "values": [{"measurement": "Kd", "setting": "[2]", "value": 25, "unit": "µM"}]}, {"molecule": "C=CCN1CC[C@]23c4c5ccc(O)c4O[C@H]2C(=O)CC[C@@]3(O)[C@H]1C5", "note": "[Naloxone]", "values": [{"measurement": "effect on green LED-induced antinociception (paw withdrawal latency)", "setting": "[1]; [7]", "value": "reversed, to baseline levels"}, {"measurement": "effect on green LED-induced antinociception (paw withdrawal latency)", "setting": "[1]; intrathecal (i.t.), 20 μg, green LED eight hours daily for five days, PWL 20-30 minutes after antagonist, listed as naloxone", "value": "reversed green LED-induced thermal analgesia"}, {"measurement": "effect on green LED-induced antinociception (paw withdrawal latency)", "setting": "[1]; naloxone systemic (printed subcutaneous / 20 mg/kg i.p.), green LED eight hours daily for five days, PWL 20-30 minutes after antagonist, 20 mg/kg", "value": "reversed, to baseline levels"}, {"measurement": "effect on green LED-induced antinociception (paw withdrawal latency)", "setting": "[1]; naloxone systemic (printed subcutaneous / 20 mg/kg i.p.), green LED eight hours daily for five days, PWL 20-30 minutes after antagonist, listed as naloxone, 20 mg/kg", "value": "reversed green LED-induced thermal analgesia"}]}, {"molecule": "CC(COc1ccccc1)N(CCCl)Cc1ccccc1", "note": "(centres unmarked) [Phenoxybenzamine]", "values": [{"measurement": "effect on green LED-induced antinociception (paw withdrawal latency)", "setting": "[1]; [8]", "value": "failed to prevent or reverse the antinociceptive effect of green LED; also recorded: failed to reverse green LED-induced thermal analgesia"}]}, {"molecule": "Cc1ccc(N(CC2=NCCN2)c2cccc(O)c2)cc1", "note": "[Phentolamine]", "values": [{"measurement": "effect on green LED-induced antinociception (paw withdrawal latency)", "setting": "[1]; [8]", "value": "failed to prevent or reverse the antinociceptive effect of green LED; also recorded: failed to reverse green LED-induced thermal analgesia"}]}, {"molecule": "CCN(CC)CC(=O)Nc1c(C)cccc1C", "note": "[lidocaine]", "values": [{"measurement": "effect on green LED-induced antinociception (paw withdrawal latency)", "setting": "[3]", "value": "prevented the subsequent development of antinociception; also recorded: reversed green LED-induced thermal analgesia"}]}, {"molecule": "CN1CC[C@]23c4c5ccc(O)c4O[C@H]2[C@@H](O)C=C[C@H]3[C@H]1C5", "note": "[morphine]", "values": [{"measurement": "effect on green LED-induced antinociception (paw withdrawal latency)", "setting": "[1]; [7]", "value": "reversed the antinociception"}]}, {"molecule": "CC(C)NCC(O)COc1cccc2ccccc12", "note": "(centres unmarked) [propranolol]", "values": [{"measurement": "effect on green LED-induced antinociception (paw withdrawal latency)", "setting": "[1]; [8]", "value": "failed to prevent or reverse the antinociceptive effect of green LED; also recorded: failed to reverse green LED-induced thermal analgesia"}]}, {"molecule": "gp120: viral envelope glycoprotein 120 of HIV-1, recombinant HIV-1 IIIB gp120, NIH AIDS Reagent Program", "values": [{"measurement": "thermal hyperalgesia (paw withdrawal latency)", "setting": "[4]", "value": "produced a thermal hyperalgesia"}, {"measurement": "mechanical allodynia (paw withdrawal threshold)", "setting": "[5]", "value": "lowered thresholds for paw withdrawals compared to baseline"}]}]}
